# Measured values: US8124793B2, “Derivatives of ethylene methanedisulfonate as cancer chemotherapeutic agents” (priority 2007, dated 2012)
# Assays:
# Assay type in all cases: cell-based
# [1] = system: NCI-H322M; assay: NCI screen, growth of human tumor cells: Non-Small Cell Lung NCI-H322M; conditions: NCI-H322M (Non-Small Cell Lung), 10^−4 molar
# Protocol: (§1) In the NCI screening process, each compound was tested and described by a minimum of 60 data points. The test data include, but are not limited to the type of cancer, the molar concentration used in the screen, and the percent growth of the cancer. In some cases, NMR and elemental analysis were used for structural assignment.
# [2] = system: SF-268; assay: NCI screen, growth of human tumor cells: CNS Cancer SF-268; conditions: SF-268 (CNS Cancer), 10^−4 molar
# How it was run: (§2)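 Under the NCI protocol, every compound is profiled with sixty or more data points. Each point ties a cancer type and a molar screening concentration to a percent growth value.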
# [3] = system: SK-MEL-5; assay: NCI screen, growth of human tumor cells: Melanoma SK-MEL-5; conditions: SK-MEL-5, 10^−4 molar
# How it was run: as §2
# [4] = system: BT-549; assay: NCI screen, growth of human tumor cells: Breast Cancer BT-549; conditions: BT-549 (Breast Cancer), 10^−4 molar
# How it was run: as §2
# [5] = system: OVCAR-3; assay: NCI screen, growth of human tumor cells: Ovarian Cancer OVCAR-3; conditions: OVCAR-3 (Ovarian Cancer), 10^−4 molar
# How it was run: as §2
# [6] = system: HOP-62; assay: NCI screen, growth of human tumor cells: Non-Small Cell Lung HOP-62; conditions: HOP-62 (Non-Small Cell Lung), 10^−4 molar
# How it was run: as §2
# [7] = system: HS 578T; assay: NCI screen, growth of human tumor cells: Breast Cancer HS 578T; conditions: HS 578T (Breast Cancer), 10^−4 molar
# How it was run: as §2
# [8] = system: MALME-3M; assay: NCI screen, growth of human tumor cells: Melanoma MALME-3M; conditions: MALME-3M, 10^−4 molar
# Protocol: as §1
# [9] = system: IGROVI; assay: NCI screen, growth of human tumor cells: Ovarian Cancer IGROVI; conditions: IGROVI (Ovarian Cancer), 10^−4 molar
# Protocol: as §1
# [10] = system: human cancer cells; assay: NCI screen summary over the cancers tested (negative growth of human cancer cells); conditions: cancers with negative growth / cancers tested
# Protocol: as §1
# The derivatives in the tables are grouped using the same category as in the tables 1-6.
# [11] = system: SK-OV-3; assay: NCI screen, growth of human tumor cells: Ovarian Cancer SK-OV-3; conditions: SK-OV-3 (Ovarian Cancer), 10^−4 molar
# Protocol: as §1
# [12] = system: SR; assay: NCI screen, growth of human tumor cells: Leukemia SR; conditions: SR (Leukemia), 10^−4 molar
# How it was run: as §2
# [13] = system: ACHN; assay: NCI screen, growth of human tumor cells: Renal Cancer ACHN; conditions: ACHN (Renal Cancer), 10^−4 molar
# How it was run: as §2
# [14] = system: COLO205; assay: NCI screen, growth of human tumor cells: Colon Cancer COLO205; conditions: COLO205, 10^−4 molar
# How it was run: as §2
# [15] = system: M14; assay: NCI screen, growth of human tumor cells: Melanoma M14; conditions: M14 (Melanoma), 10^−4 molar
# How it was run: as §2
# [16] = system: OVCAR-5; assay: NCI screen, growth of human tumor cells: Ovarian Cancer OVCAR-5; conditions: OVCAR-5, 10^−4 molar
# Protocol: as §1
# [17] = system: HCT-116; assay: NCI screen, growth of human tumor cells: Colon Cancer HCT-116; conditions: HCT-116 (Colon Cancer), 10^−4 molar
# How it was run: as §2
# [18] = system: KM12; assay: NCI screen, growth of human tumor cells: Colon Cancer KM12; conditions: KM12 (Colon Cancer), 10^−4 molar
# How it was run: as §2
# [19] = system: NCI-H226; assay: NCI screen, growth of human tumor cells: Non-Small Cell Lung NCI-H226; conditions: NCI-H226, 10^−4 molar
# How it was run: as §2
# [20] = system: AS49/ATCC; assay: NCI screen, growth of human tumor cells: Non-Small Cell Lung AS49/ATCC; conditions: AS49/ATCC (Non-Small Cell Lung), 10^−4 molar
# Protocol: as §1
# [21] = system: HT29; assay: NCI screen, growth of human tumor cells: Colon Cancer HT29
# Protocol: as §1
# [22] = system: U-251; assay: NCI screen, growth of human tumor cells: CNS Cancer U-251; conditions: U-251 (CNS Cancer), 10^−4 molar
# How it was run: as §2
# [23] = system: SF-539; assay: NCI screen, growth of human tumor cells: CNS Cancer SF-539; conditions: SF-539, 10^−4 molar
# How it was run: as §2
# [24] = system: SK-MEL-28; assay: NCI screen, growth of human tumor cells: Melanoma SK-MEL-28
# Protocol: as §1
# [25] = system: SF-295; assay: NCI screen, growth of human tumor cells: CNS Cancer SF-295; conditions: SF-295, 10^−4 molar
# How it was run: as §2
# [26] = system: NCI-H522; assay: NCI screen, growth of human tumor cells: Non-Small Cell Lung NCI-H522; conditions: NCI-H522, 10^−4 molar
# Protocol: as §1
# [27] = system: UACC-257; assay: NCI screen, growth of human tumor cells: Melanoma UACC-257; conditions: UACC-257 (Melanoma), 10^−4 molar
# Protocol: as §1
# [28] = system: DU-145; assay: NCI screen, growth of human tumor cells: Prostate Cancer DU-145; conditions: DV-145, 10^−4 molar
# How it was run: as §2
# [29] = system: SN12C; assay: NCI screen, growth of human tumor cells: Renal Cancer SN12C; conditions: SN12C (Renal Cancer), 10^−4 molar
# How it was run: as §2
# [30] = system: CCRF-CEM; assay: NCI screen, growth of human tumor cells: Leukemia CCRF-CEM; conditions: CCRF-CEM (Leukemia), 10^−4 molar
# How it was run: as §2
# [31] = system: SK-MEL-2; assay: NCI screen, growth of human tumor cells: Melanoma SK-MEL-2; conditions: SK-MEL-2 (Melanoma), 10^−4 molar
# Protocol: as §1
# [32] = system: UACC-62; assay: NCI screen, growth of human tumor cells: Melanoma UACC-62; conditions: UACC-62, 10^−4 molar
# How it was run: as §2
# [33] = system: RPMI-8226; assay: NCI screen, growth of human tumor cells: Leukemia RPMI-8226; conditions: RPMI-8226 (Leukemia), 10^−4 molar
# How it was run: as §2
# [34] = system: RXF-393; assay: NCI screen, growth of human tumor cells: Renal Cancer RXF-393; conditions: RXF-393 (Renal Cancer), 10^−4 molar
# How it was run: as §2
# [35] = system: MCF 7; assay: NCI screen, growth of human tumor cells: Breast Cancer MCF 7; conditions: MCF 7 (Breast Cancer), 10^−4 molar
# Protocol: as §1
# [36] = system: NCI-H23; assay: NCI screen, growth of human tumor cells: Non-Small Cell Lung NCI-H23; conditions: NCI-H23, 10^−4 molar
# How it was run: as §2
structure (smiles),measurement,setting,value
"CC1=C(CC2(C(=O)C(F)(F)C(F)(F)C(F)(F)F)S(=O)(=O)OCCOS2(=O)=O)C(=O)c2ccccc2C1=O [NSC 720683, ethylene perfluorobutyril-(3-methyl-1,4-naphtho-2-quinoyl)-1,1-ethanedisulfonate]",percent of growth of human tumor cells,[1],25%
same,percent of growth of human tumor cells,[2],1%
same,% Growth,[3],−95%
same,percent of growth of human tumor cells,[4],−50%
same,percent of growth of human tumor cells,[5],30%
same,percent of growth of human tumor cells,[6],−28%
same,percent of growth of human tumor cells,[7],−14%
same,% Growth,[8],−87%
same,percent of growth of human tumor cells,[9],27%
same,Percentage of cancers showing negative growth cancers tested,[10]; 10^−5 M conc.,100%
same,Percentage of cancers showing negative growth cancers tested,[10]; 10^−6 M conc.,100%
same,percent of growth of human tumor cells,[11],24%
same,percent of growth of human tumor cells,[12],−22%
same,percent of growth of human tumor cells,[13],−27%
same,% Growth,[14],−84%
same,percent of growth of human tumor cells,[15],−56%
same,% Growth,[16],−71%
same,percent of growth of human tumor cells,[17],22%
same,percent of growth of human tumor cells,[18],26%
same,% Growth,[19],−68%
same,percent of growth of human tumor cells,[20],−45%
same,% Growth,"[21]; HT-29, 10^−4 molar",−100%
same,% Growth,"[21]; HT-29, 10^−5 molar",−37%
same,% Growth,"[21]; HT-29, 10^−6 molar",−6%
same,% Growth,"[21]; HT-29, 10^−7 molar",23%
same,percent of growth of human tumor cells,[22],12%
same,% Growth,[23],−67%
same,% Growth,"[24]; SK-MEL-28, 10^−4 molar",−85%
same,% Growth,"[24]; SK-MEL-28, 10^−5 molar",−55%
same,% Growth,"[24]; SK-MEL-28, 10^−6 molar",−31%
same,% Growth,"[24]; SK-MEL-28, 10^−7 molar",31%
same,% Growth,"[24]; SK-MEL-28, 10^−8 molar",74%
same,% Growth,[25],−70%
same,% Growth,[26],−68%
same,percent of growth of human tumor cells,[27],−18%
same,% Growth,[28],−100%
same,percent of growth of human tumor cells,[29],−37%
same,percent of growth of human tumor cells,[30],5%
same,percent of growth of human tumor cells,[31],−57%
same,% Growth,[32],−85%
same,percent of growth of human tumor cells,[33],28%
same,percent of growth of human tumor cells,[34],9%
same,percent of growth of human tumor cells,[35],−24%
same,% Growth,[36],−75%
